# Data taken from PMC4676711 (ACS chemical neuroscience, 2015).
# Assay: plasma stability
# Format: in vitro ADME
# Conditions: mouse, plasma (K2 EDTA)
smiles,measurement,value
CC1CC(OC(=O)C(O)c2ccccc2)CC(C)(C)N1C (stereo not shown) [Eucatropine],"remaining at 0.5 h, 1 μM",43.2%
